# Test results published in PMC12249582, “Ruxolitinib Modulates P-Glycoprotein Function, Delays T Cell Activation, and Impairs CCL19 Chemokine-Directed Migration in Human Cytotoxic T Lymphocytes” (International Journal of Molecular Sciences, 2025).
# Target: T1, P-glycoprotein (Pgp/ABCB1) (Homo sapiens, UniProt P08183)
# T1 construct: human Pgp stably expressed in NIH-3T3 MDR1 cells (cells and raw membrane preparations)
# Assay: calcein-AM efflux inhibition in NIH-3T3 MDR1 cells (IC50); vanadate-sensitive ATPase stimulation in Pgp membranes
# Type: cell-based
# T1 sequence (P08183 whole entry): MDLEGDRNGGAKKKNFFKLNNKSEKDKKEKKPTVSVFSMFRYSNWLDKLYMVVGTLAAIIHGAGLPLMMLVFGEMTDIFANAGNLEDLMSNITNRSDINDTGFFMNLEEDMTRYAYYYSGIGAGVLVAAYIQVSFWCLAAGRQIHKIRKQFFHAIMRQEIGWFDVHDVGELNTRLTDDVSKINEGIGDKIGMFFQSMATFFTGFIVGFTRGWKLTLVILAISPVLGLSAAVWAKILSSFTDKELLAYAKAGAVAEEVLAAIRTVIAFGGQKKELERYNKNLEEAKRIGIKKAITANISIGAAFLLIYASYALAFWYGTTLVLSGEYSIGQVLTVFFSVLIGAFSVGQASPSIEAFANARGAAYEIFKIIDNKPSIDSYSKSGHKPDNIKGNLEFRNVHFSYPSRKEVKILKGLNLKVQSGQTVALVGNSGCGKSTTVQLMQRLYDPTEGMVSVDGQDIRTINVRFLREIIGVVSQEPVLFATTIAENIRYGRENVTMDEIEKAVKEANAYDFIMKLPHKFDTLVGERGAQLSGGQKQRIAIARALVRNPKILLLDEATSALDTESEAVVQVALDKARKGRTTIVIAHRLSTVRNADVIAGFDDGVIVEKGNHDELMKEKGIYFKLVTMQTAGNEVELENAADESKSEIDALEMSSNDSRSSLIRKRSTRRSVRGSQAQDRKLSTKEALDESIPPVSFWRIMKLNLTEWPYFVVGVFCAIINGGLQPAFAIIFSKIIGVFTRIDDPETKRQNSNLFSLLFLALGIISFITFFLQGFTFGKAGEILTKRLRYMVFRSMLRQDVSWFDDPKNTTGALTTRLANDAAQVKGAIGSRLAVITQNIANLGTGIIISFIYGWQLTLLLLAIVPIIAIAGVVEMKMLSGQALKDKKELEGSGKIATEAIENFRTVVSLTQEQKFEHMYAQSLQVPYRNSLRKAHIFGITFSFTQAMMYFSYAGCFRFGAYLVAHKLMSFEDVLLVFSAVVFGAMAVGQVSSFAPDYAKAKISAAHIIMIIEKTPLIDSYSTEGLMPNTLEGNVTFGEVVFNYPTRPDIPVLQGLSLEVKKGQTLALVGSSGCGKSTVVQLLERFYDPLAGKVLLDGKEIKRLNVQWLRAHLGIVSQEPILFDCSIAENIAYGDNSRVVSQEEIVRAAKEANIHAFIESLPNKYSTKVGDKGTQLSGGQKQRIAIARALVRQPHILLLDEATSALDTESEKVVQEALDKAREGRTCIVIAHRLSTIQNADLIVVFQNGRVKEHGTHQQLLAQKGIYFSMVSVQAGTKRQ
structure (smiles),measurement,value
"N#CC[C@H](C1CCCC1)n1cc(-c2ncnc3[nH]ccc23)cn1 [RUX, ruxolitinib]",IC50,~13 µM
